One data set addresses T1, rat APJ receptor (Rattus norvegicus, UniProt Q9JHG3).
T1 construct: expressed in transfected cells
T1 sequence (Q9JHG3 1-377): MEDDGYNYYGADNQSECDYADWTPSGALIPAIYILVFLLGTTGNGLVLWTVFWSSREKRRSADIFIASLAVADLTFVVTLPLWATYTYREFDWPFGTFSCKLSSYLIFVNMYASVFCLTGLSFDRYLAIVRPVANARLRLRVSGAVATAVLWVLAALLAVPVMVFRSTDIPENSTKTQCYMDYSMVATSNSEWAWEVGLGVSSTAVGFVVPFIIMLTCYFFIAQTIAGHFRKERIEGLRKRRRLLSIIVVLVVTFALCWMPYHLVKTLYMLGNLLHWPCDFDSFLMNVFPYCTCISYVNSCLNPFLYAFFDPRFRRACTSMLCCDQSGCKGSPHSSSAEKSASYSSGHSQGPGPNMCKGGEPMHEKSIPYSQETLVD
The data set can be described thus: [35S] GTPγS assay, rat APJ receptor. The format is biochemical. The settings on record: Table 16, read-out: EC50 Rat APJ Receptor. Here is the method: The membranes were incubated with modified peptides in the assay buffer. […] Bound [^35S] GTPγS was separated from free radiolabel by filtration. The filter bound radioactivity was determined by liquid scintillation counting.

Data set [1] in a line: In vitro stability in rat plasma. The format is in vitro ADME. Here is the method: (§1) Apelin peptides were spiked into rat plasma, liver homogenate, and kidney homogenate, which were obtained from commercial sources, to a final concentration of 5 μM. The samples were then incubated at 37° C. over a period of 4 hr. […] In a typical experiment, an aliquot of 100 μL of sample was taken from the incubation vial, followed by addition of 300 μL of MeOH containing internal standard. The quenched sample was centrifuged at 5500 g for 15 min after 15 min vortex in room temperature. The supernatant was then analyzed by high resolution LC-MS. […] In vitro plasma, […], and kidney stability results are shown below in Table 14.

Data set [2] in a line: In vitro stability in rat liver homogenate. In kind it is in vitro ADME. As to conditions: tissue homogenate. As to the method: as §1

Starred links: 1 amine or outer side, 2 acyl side, 3 side chain; linkers in the order of their positions; H or OH if unused. Non-standard residues stand in square brackets, D forms with d. Residues, ends and D or L forms follow the SMILES beside them. *: point of attachment. dBip = N[C@H](Cc1ccc(-c2ccccc2)cc1)C(=O)O; Oic = O=C(O)[C@@H]1C[C@@H]2CCCC[C@@H]2N1; Phe(4-Cl) = N[C@@H](Cc1ccc(Cl)cc1)C(=O)O; γGlu = O=C(O)[C@H](CCC(=O)[*:2])N[*:1]; dIgl = N[C@@H](C(=O)O)C1Cc2ccccc2C1; NMeR = CN[C@@H](CCCNC(=N)N)C(=O)O; Tridecanoyl = CCCCCCCCCCCCC(=O)*; hArg = N=C(N)NCCCC[C@H](N)C(=O)O; Cha = N[C@@H](CC1CCCCC1)C(=O)O; β3hP = O=C(O)C[C@@H]1CCCN1; Nle = CCCC[C@H](N)C(=O)O; AEEA = NCCOCCOCC(=O)O

In general, EC50 refers to the concentration giving half of the maximal effect. Consider `CCCCCCCCCCCCC(=O)N[C@@H](CCC(=O)NCCOCCOCC(=O)NCCOCCOCC(=O)N[C@H](CCC(N)=O)C(=O)N[C@@H](CCCCNC(=N)N)C(=O)N1CCC[C@H]1C(=O)N[C@H](CCCNC(=N)N)C(=O)N[C@@H](CC1CCCCC1)C(=O)N[C@@H](CO)C(=O)N[C@@H](Cc1c[nH]cn1)C(=O)N[C@@H](CCCCN)C(=O)NCC(=O)N1[C@H](C(=O)N[C@@H](CCCC)C(=O)N2CCC[C@H]2C(=O)N[C@@H](C(=O)O)C2Cc3ccccc3C2)C[C@@H]2CCCC[C@@H]21)C(=O)O` [compound 431] ({Tridecanoyl-γGlu-AEEA-AEEA}-[dQ][hArg]P[dR][Cha]SHKG[Oic][Nle]P[dIgl]-OH), for which the EC50 on rat APJ receptor was found to be 25 nM. As to `CCCCCCCCCCCCC(=O)N[C@@H](CCC(=O)NCCOCCOCC(=O)NCCOCCOCC(=O)N[C@@H](CCC(N)=O)C(=O)N[C@@H](CCCNC(=N)N)C(=O)N1CCC[C@H]1C(=O)N(C)[C@@H](CCCNC(=N)N)C(=O)N[C@@H](CC1CCCCC1)C(=O)N[C@@H](CO)C(=O)N[C@@H](Cc1c[nH]cn1)C(=O)N[C@@H](CCCCN)C(=O)NCC(=O)N1CCC[C@H]1CC(=O)N[C@@H](CCCC)C(=O)N1CCC[C@H]1C(=O)N[C@@H](Cc1ccc(Cl)cc1)C(=O)O)C(=O)O` [compound 417] ({Tridecanoyl-γGlu-AEEA-AEEA}-QRP[NMeR][Cha]SHKG[β3hP][Nle]P[Phe(4-Cl)]-OH), the concentration for a half-maximal effect (EC50) at rat APJ receptor was 8.1 nM. The term amount remaining denotes what is left of the initial amount, in per cent. The low end stands for a greater loss, the high end for greater stability. For the compound `CCCCCCCCCCCCC(=O)N[C@@H](CCC(=O)NCCOCCOCC(=O)NCCOCCOCC(=O)N[C@@H](CCC(N)=O)C(=O)N(C)[C@@H](CCCCNC(=N)N)C(=O)N1CCC[C@H]1C(=O)N(C)[C@@H](CCCNC(=N)N)C(=O)N[C@@](C)(CC(C)C)C(=O)N[C@@H](CO)C(=O)N[C@@H](Cc1c[nH]cn1)C(=O)N[C@@H](CCCCN)C(=O)NCC(=O)N1CCC[C@H]1C(=O)N[C@@H](CCCC)C(=O)N1CCC[C@H]1C(=O)N[C@@H](Cc1ccc(Cl)cc1)C(=O)O)C(=O)O` [compound 484], the fraction remaining at 4 h, 5 μM was 79% in data set [1] and less than 1% in data set [2]. The corresponding values for `CCCCCCCCCCCCC(=O)N[C@@H](CCC(=O)NCCOCCOCC(=O)NCCOCCOCC(=O)N[C@@H](CCC(N)=O)C(=O)N[C@@H](CCCNC(=N)N)C(=O)N[C@@H](CCC(=O)O)C(=O)N(C)[C@@H](CCCNC(=N)N)C(=O)N[C@@H](CC(C)C)C(=O)N[C@@H](CO)C(=O)N[C@@H](Cc1c[nH]cn1)C(=O)N[C@@H](CCCCN)C(=O)NCC(=O)N1CCC[C@H]1C(=O)N[C@@H](CCCC)C(=O)N1CCC[C@H]1C(=O)N[C@@H](Cc1ccc(Cl)cc1)C(=O)O)C(=O)O` [compound 476] are 40% and less than 1%.

Regarding `CCCC[C@H](NC(=O)[C@@H]1CCCN1C(=O)CNC(=O)[C@H](CCCCN)NC(=O)[C@H](Cc1c[nH]cn1)NC(=O)[C@H](CO)NC(=O)[C@H](CC(C)C)NC(=O)[C@H](CCCNC(=N)N)NC(=O)[C@@H]1CCCN1C(=O)[C@H](CCCNC(=N)N)NC(=O)[C@H](CCC(N)=O)NC(=O)[C@H](CCCNC(=N)N)NC(C)=O)C(=O)N1CCC[C@H]1C(=O)N[C@H](Cc1ccc(-c2ccccc2)cc1)C(=O)O` [compound 62] (Ac-RQRPRLSHKGP[Nle]P[dBip]-OH), the share remaining at 4 h, 5 μM in data set [1] was 6.3%; in data set [2], less than 1%. Turning to `CCCCCCCCCCCCCCC(=O)N[C@@H](CCC(=O)NCCOCCOCC(=O)NCCOCCOCC(=O)N[C@@H](CCC(N)=O)C(=O)N[C@@H](CCCNC(=N)N)C(=O)N1CCC[C@H]1C(=O)N(C)[C@@H](CCCNC(=N)N)C(=O)N[C@@H](CC(C)C)C(=O)N[C@@H](CO)C(=O)N[C@@H](Cc1c[nH]cn1)C(=O)N[C@@H](CCCCN)C(=O)NCC(=O)N1CCC[C@H]1C(=O)N[C@@H](CCCC)C(=O)N1CCC[C@H]1C(=O)N[C@@H](Cc1ccc(Cl)cc1)C(=O)O)C(=O)O` [compound 495], the amount remaining at 4 h, 5 μM was 75% in data set [1] and less than 1% in data set [2].
